Source: PubChem BioAssay (NCI)
“And” between values parts separate entries of the source, which are not always exact repeats. Equal values may be shown once.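 All cell lines were grown in 96-well plates and treated with compound for 48 hours. GI50 marks 50% less growth. TGI is the concentration that stops growth completely.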

Key:
Test in all cases: inhibition of tumour cell growth, NCI panel, 48 h
SF-539 CNS = test system: SF-539 CNS
HCT-116 colon = test system: HCT-116 colon
RXF 393 renal = test system: RXF 393 renal
UACC-257 melanoma = test system: UACC-257 melanoma
HL-60(TB) leukemia = test system: HL-60(TB) leukemia
SNB-75 CNS = test system: SNB-75 CNS
A498 renal = test system: A498 renal
OVCAR-4 ovarian = test system: OVCAR-4 ovarian
RPMI-8226 leukemia = test system: RPMI-8226 leukemia
MCF7 breast = test system: MCF7 breast

| SMILES | TGI (SF-539 CNS) | TGI (HCT-116 colon) [µM] | TGI (RXF 393 renal) | TGI (UACC-257 melanoma) | TGI (HL-60(TB) leukemia) | TGI (SNB-75 CNS) | TGI (A498 renal) [µM] | TGI (OVCAR-4 ovarian) [µM] | TGI (RPMI-8226 leukemia) | GI50 (SF-539 CNS) [µM] | GI50 (HCT-116 colon) [µM] | GI50 (RXF 393 renal) [µM] | GI50 (UACC-257 melanoma) [µM] | GI50 (HL-60(TB) leukemia) [µM] | GI50 (SNB-75 CNS) [µM] | GI50 (A498 renal) [µM] | GI50 (RPMI-8226 leukemia) [µM] | GI50 (MCF7 breast) [µM] | TGI (MCF7 breast) [µM] | GI50 (OVCAR-4 ovarian) [µM] |
| --- | --- | --- | --- | --- | --- | --- | --- | --- | --- | --- | --- | --- | --- | --- | --- | --- | --- | --- | --- | --- |
| C1CCOC2(CCC3(CC2)OCCCCO3)OC1 | > 100 µM | > 100 | > 100 µM | > 100 µM | > 100 µM | > 100 µM | > 100 | > 100 | > 100 µM | – | – | – | – | – | – | – | – | – | – | – |
| CN(C)c1ccc(C(=C2C=CC(=[N+](C)C)C=C2)c2ccc(N(C)C)cc2)cc1 | 1.03 µM and 1.23 µM | 0.36 | 0.468 µM and 0.695 µM | 0.763 µM and 0.416 µM | 0.493 µM and 0.173 µM | 0.581 µM and 1.03 µM | 0.622 | 1.05 | 0.165 µM and 0.163 µM | 0.19 | 0.0363 | 0.113 | 0.228 | 0.16 | 0.112 | 0.145 | 0.0358 | – | – | – |
| C=C1CCC2[C@@H](CCC3[C@]2(C)CCC[C@]3(C)C(=O)OC)C1CCO (stereo partly specified) | 26.3 µM | 19.2 | – | 18.6 µM | 9.36 µM | 19.7 µM | 30.6 | 26.6 | 17 µM | – | – | – | – | – | – | – | – | – | – | – |
| C=C1CCc2occ(C)c2C2C1C1=C(CC(C)C1=O)C1OC12C (stereo unspecified) | > 100 µM | > 100 | > 100 µM | > 100 µM | – | > 100 µM | > 100 | > 100 | – | – | – | – | – | – | – | – | – | – | – | – |
| C=CCNC(=O)NCCCC(NC(C)=O)C(=O)NCc1ccccc1 (stereo unspecified) | > 100 µM | – | > 100 µM | > 100 µM | > 100 µM | > 100 µM | > 100 | > 100 | > 100 µM | – | – | – | – | – | – | – | – | – | – | – |
| CC(=O)O[C@H]1CC[C@@]2(C)[C@@H](CC[C@@H]3[C@@H]2CC[C@]2(C)C=C(C=O)C[C@@H]32)C1 | 12.7 µM | 3.42 | – | 26.3 µM | 5.87 µM | 22.2 µM | > 100 | 13.8 | 8.16 µM | 3.66 | 1.66 | – | 12.2 | 2.2 | 9.36 | 94.6 | 2.74 | 2.58 | 10.8 | 3.48 |
| CC12CC(OC(=O)[C@]1(C)O)[C@@H]([C@]1(O)CC[C@H]3[C@@H]4C[C@H]5O[C@]56[C@@H](O)C=CC(=O)[C@]6(C)[C@H]4CC[C@@]31C)C2 (stereo partly specified) | 7.29 µM | 13.2 | 8.76 µM | 28.4 µM | – | – | 33.2 | 24.4 | – | – | – | – | – | – | – | – | – | – | 17.2 | – |
| CCCC(Sc1ccccc1)P(=O)(c1ccccc1)c1ccccc1 (stereo unspecified) | > 100 µM | > 100 | > 100 µM | > 100 µM | 52.6 µM | > 100 µM | > 100 | > 100 | 51.8 µM | – | – | – | – | – | – | – | – | – | – | – |
| N.N.NCCCCCCN.O=C([O-])CC(=O)[O-].O=C([O-])CC(=O)[O-].[Pt+4].[Pt+4] | > 100 µM | > 100 | > 100 µM | > 100 µM | > 100 µM | > 100 µM | > 100 | > 100 | > 100 µM | 73.9 | > 100 | > 41.4 | > 100 | 23.7 | 38.7 | > 100 | > 100 | – | – | > 78.5 |
